The test has as its target T1, UGT8 (Homo sapiens, UniProt Q16880).
T1 construct: host or cells: OE19 cells
T1 sequence (Q16880 21-541): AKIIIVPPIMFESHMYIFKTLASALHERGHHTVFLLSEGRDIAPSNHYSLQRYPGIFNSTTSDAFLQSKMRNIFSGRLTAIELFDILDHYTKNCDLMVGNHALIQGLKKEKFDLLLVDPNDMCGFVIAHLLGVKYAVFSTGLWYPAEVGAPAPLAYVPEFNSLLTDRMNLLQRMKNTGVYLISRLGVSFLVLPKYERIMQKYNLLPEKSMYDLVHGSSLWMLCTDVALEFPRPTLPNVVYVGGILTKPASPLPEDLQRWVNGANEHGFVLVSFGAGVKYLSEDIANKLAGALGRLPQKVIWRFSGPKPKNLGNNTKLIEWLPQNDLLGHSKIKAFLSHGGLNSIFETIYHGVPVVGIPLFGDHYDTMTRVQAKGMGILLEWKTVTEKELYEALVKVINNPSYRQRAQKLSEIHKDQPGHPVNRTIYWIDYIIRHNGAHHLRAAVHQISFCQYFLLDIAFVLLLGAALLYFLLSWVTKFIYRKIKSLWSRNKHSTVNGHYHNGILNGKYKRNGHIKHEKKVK
The test is described as follows: In vitro sulfatide (SFT) synthesis inhibition in OE19 cells, LC-MS/MS readout. In kind it is cell-based. The following applies: 72 hr, sulfatide by LC-MS/MS, read-out: Potency range (IC50, In-vitro SFT). As for the experimental part: For medium throughput screening, library compounds were dispensed into CellBIND 384 well plates to a final concentration of 10 μM. OE19 cells (Sigma) were grown in to 70-90% confluency in RPMI 1640+L-glutamine and […]; were trypsinized to achieve suspension and were aliquoted at 2,500 cells/well, total well volume 50 μl. Plates were incubated 72 hr at 37° C. in 5% CO2; supernatant was removed and plates were dried, heat-sealed and stored at −20° C. until analysis.
For IC50 determinations, the same procedure was followed except that test compounds were added to the plate as dose-downs in triplicate to yield concentration response curves.
Mass Spectrometer Analysis of Sulfatide (SFT):
Assay plates were thawed and 85 μl mobile phase B (5 mM ammonium formate^+0.2% formic acid in 50:50 methanol:acetonitrile). Fifteen μl 20 ng/ml C17 SFT in mobile phase B was added as an internal standard.
SFT was analyzed using an Applied Biosystems API-4000 triple quad mass spectrometer interfaced to a Thermo Scientific Multiplex system (LX-4) equipped with four pumps. Chromatography of OE19 cell samples or 2B5-mouse cells treated with compounds was performed using a Waters Acquity UPLC BEH C8 2.1×50 mm column with 1.7 um particle size. The chromatography was performed using the following mobile phases. Mobile phase A (MPA): 0.2% formic acid and 5 mM ammonium formate in deionized water; MPB: see above. The LC method was run in isocratic mode for 4 sequentially running columns using 95% MPB and 5% MPA with flow rate of 1 ml/min and a column temperature of 60° C.
The Triple quad mass spectrometer was run in Negative Ionization mode monitoring the following MRM transitions and using the following parameters:
Electrospray voltage was […], and source temperature was 550° C.

In general, IC50 refers to the concentration at which inhibition is half-maximal.

Regarding `CNC(=O)c1csc2c(C(F)(F)F)cc(O[C@H]3CCN(C(=O)OC[C@@H](C)OC(F)(F)F)C3)nc12` [Example 858, (R)-2-(Trifluoromethoxy)propyl (S)-3-((3-(methylcarbamoyl)-7-(trifluoromethyl)thieno[3,2-b]pyridin-5-yl)oxy)pyrrolidine-1-carboxylate], the IC50 is less than 0.1 µM.

For the compound `CNC(=O)c1csc2c(C(F)(F)F)cc(N3CC4(CN(C(=O)OC5COC5)C4)C3)nc12` [Example 339, Oxetan-3-yl 6-(3-(methylcarbamoyl)-7-(trifluoromethyl)thieno[3,2-b]pyridin-5-yl)-2,6-diazaspiro[3.3]heptane-2-carboxylate], the IC50 was less than 0.1 µM.

As for `CNC(=O)c1csc2c(C(F)(F)F)cc(N3CCN(CC(=O)NC(C)C)C(C)(C)C3)nc12` [Example 49, 5-(4-(2-(Isopropylamino)-2-oxoethyl)-3,3-dimethylpiperazin-1-yl)-N-methyl-7-(trifluoromethyl)thieno[3,2-b]pyridine-3-carboxamide], the IC50 is less than 0.1 µM.

On to `CNC(=O)c1csc2c(C(F)(F)F)cc(N3CCC(OC(=O)NC(C)CF)CC3)nc12` (racemic) [Example 671, [1-[3-(Methylcarbamoyl)-7-(trifluoromethyl)thieno[3,2-b]pyridin-5-yl]-4-piperidyl] N-(2-fluoro-1-methyl-ethyl)carbamate], for which the IC50 is less than 0.1 µM.

Regarding `CNC(=O)c1csc2c(C(F)(F)F)cc(OC3(C)CN(C(=O)OCCOC(F)(F)F)C3)nc12` [Example 254, 2-(Trifluoromethoxy)ethyl 3-methyl-3-((3-(methylcarbamoyl)-7-(trifluoromethyl)thieno[3,2-b]pyridin-5-yl)oxy)azetidine-1-carboxylate], the IC50 is less than 0.1 µM.

On to `CNC(=O)c1csc2c(C(F)(F)F)cc(OC3CC4COCC(C3)N4C(=O)OC(C)(C)C)nc12` (stereo not shown) [Example 750], for which the IC50 is greater than 1 µM.

On to `CNC(=O)c1csc2c(C(F)(F)F)cc(N3CCC(OC(=O)N4CC5(CCN5C)C4)CC3)nc12` [Example 806, 1-(3-(Methylcarbamoyl)-7-(trifluoromethyl)thieno[3,2-b]pyridin-5-yl)piperidin-4-yl 1-methyl-1,6-diazaspiro[3.3]heptane-6-carboxylate], for which the IC50 is less than 0.1 µM.

For `CNC(=O)c1csc2c(C(F)(F)F)cc(N3CCC(OC(=O)NCC4CC4)CC3)nc12` [Example 474, 1-(3-(Methylcarbamoyl)-7-(trifluoromethyl)thieno[3,2-b]pyridin-5-yl)piperidin-4-yl (cyclopropylmethyl)carbamate], the IC50 is less than 0.1 µM.

As to `COC(=O)c1csc2c(C(F)(F)F)cc(N3CCC(OC(=O)NCC4CC4)CC3)nc12` [Example 428, Methyl 5-(4-(((cyclopropylmethyl)carbamoyl)oxy)piperidin-1-yl)-7-(trifluoromethyl)thieno[3,2-b]pyridine-3-carboxylate], the IC50 is less than 0.1 µM.

As for `CNC(=O)c1csc2c(C(F)(F)F)cc(N3CC[C@H](OC(=O)N[C@@H](C)COC(F)(F)F)[C@@H](F)C3)nc12` (racemic) [Example 418], the IC50 was less than 0.1 µM.

In the case of `CNC(=O)c1csc2c(C(F)(F)F)cc(OC3CCN(C(=O)OC(C)(C)C)C3)nc12` (stereo not shown) [Example 589, tert-Butyl 3-((3-(methylcarbamoyl)-7-(trifluoromethyl)thieno[3,2-b]pyridin-5-yl)oxy)pyrrolidine-1-carboxylate], the IC50 was in the range of 0.1 to 1 µM.

For the compound `CNC(=O)c1csc2c(C(F)(F)F)cc(O[C@@H]3CCN(C(=O)OC(C)(C)C)[C@@H](C)C3)nc12` (racemic) [Example 368, (+/−)-tert-Butyl trans-2-methyl-4-((3-(methylcarbamoyl)-7-(trifluoromethyl)thieno[3,2-b]pyridin-5-yl)oxy)piperidine-1-carboxylate], the 50% inhibitory concentration (IC50) lay within 0.1 to 1 µM.

As for `CNC(=O)c1csc2c(C(F)(F)F)cc(N3CCN(C(=O)OCC4CC4)CC3)nc12` [Example 780, Cyclopropylmethyl 4-(3-(methylcarbamoyl)-7-(trifluoromethyl)thieno[3,2-b]pyridin-5-yl)piperazine-1-carboxylate], the IC50 was less than 0.1 µM.

With `CNC(=O)c1csc2c(C(F)(F)F)cc(N3CCC(OC(=O)N4C[C@H](N(C)C)[C@@H]4C)CC3)nc12` [Example 793, 1-(3-(Methylcarbamoyl)-7-(trifluoromethyl)thieno[3,2-b]pyridin-5-yl)piperidin-4-yl (2S,3S)-3-(dimethylamino)-2-methylazetidine-1-carboxylate], the IC50 was 0.1 to 1 µM.

Consider `CNC(=O)c1csc2c(C(F)(F)F)c(C)c(O[C@H]3C[C@@H](NC(=O)OCC4CC4)C3)nc12` [Example 218, Cyclopropylmethyl ((1S,3S)-3-((6-methyl-3-(methylcarbamoyl)-7-(trifluoromethyl)thieno[3,2-b]pyridin-5-yl)oxy)cyclobutyl)carbamate], for which the IC50 was less than 0.1 µM.

As for `CNC(=O)c1csc2c(C(F)(F)F)cc(N3CCC(OC(=O)N4CC(OC(F)(F)F)C4)CC3)nc12` [Example 88, 1-(3-(Methylcarbamoyl)-7-(trifluoromethyl)thieno[3,2-b]pyridin-5-yl)piperidin-4-yl 3-(trifluoromethoxy)azetidine-1-carboxylate], the IC50 was less than 0.1 µM.

With `CNC(=O)c1csc2c(C(F)(F)F)cc(N3CCC(NC(=O)OC(C)C)CC3)nc12` [Example 816, Isopropyl (1-(3-(methylcarbamoyl)-7-(trifluoromethyl)thieno[3,2-b]pyridin-5-yl)piperidin-4-yl)carbamate], the IC50 is less than 0.1 µM.

In the case of `CNC(=O)c1csc2c(C(F)(F)F)cc(N3CC[C@H](OC(=O)NC(C)C)[C@@H](F)C3)nc12` (racemic) [Example 490, (+/−)-tran-3-Fluoro-1-(3-(methylcarbamoyl)-7-(trifluoromethyl)thieno[3,2-b]pyridin-5-yl)piperidin-4-yl isopropylcarbamate], the IC50 is less than 0.1 µM.

For the compound `CNC(=O)c1csc2c(C(F)(F)F)c(F)c(N3CCC(OC(=O)N[C@@H](C)C4CC4)CC3)nc12` [Example 639, [1-[6-Fluoro-3-(methylcarbamoyl)-7-(trifluoromethyl)thieno[3,2-b]pyridin-5-yl]-4-piperidyl] N-[(1S)-1-cyclopropylethyl]carbamate], the 50% inhibitory concentration (IC50) was less than 0.1 µM.

Turning to `CNC(=O)c1csc2c(C(F)(F)F)cc(O[C@H]3C[C@@H](OC(=O)N[C@@H](C)COC(F)(F)F)C3)nc12` (racemic) [Example 833, (+/−)-cis-(1S,3R)-3-((3-(Methylcarbamoyl)-7-(trifluoromethyl)thieno[3,2-b]pyridin-5-yl)oxy)cyclobutyl ((S)-1-(trifluoromethoxy)propan-2-yl)carbamate], the IC50 was less than 0.1 µM.

As for `CNC(=O)c1csc2c(C(F)(F)F)cc(N3CCC(NC(=O)O[C@H]4CCN(C)[C@H]4C)CC3)nc12` [Example 809, (2S,3S)-1,2-Dimethylpyrrolidin-3-yl (1-(3-(methylcarbamoyl)-7-(trifluoromethyl)thieno[3,2-b]pyridin-5-yl)piperidin-4-yl)carbamate], the IC50 was greater than 1 µM.

On to `CNC(=O)c1csc2c(C(F)(F)F)cc(N3CCC(NC(=O)OCCOC(F)(F)F)CC3)nc12` [Example 520, 2-(Trifluoromethoxy)ethyl (1-(3-(methylcarbamoyl)-7-(trifluoromethyl)thieno[3,2-b]pyridin-5-yl)piperidin-4-yl)carbamate], for which the IC50 is less than 0.1 µM.

As for `CC(C)NC(=O)c1csc2c(C(F)(F)F)cc(N3CCC(NC(=O)OC(C)(C)C)C3)nc12` (stereo not shown) [Example 642, tert-Butyl N-[1-[3-(isopropylcarbamoyl)-7-(trifluoromethyl)thieno[3,2-b]pyridin-5-yl]pyrrolidin-3-yl]carbamate], the IC50 is 0.1 to 1 µM.

As to `CNC(=O)c1csc2c(C(F)(F)F)cc(C3CC4(C3)CN(C(=O)OC(C)(C)C)C4)nc12` [Example 574, tert-Butyl 6-(3-(methylcarbamoyl)-7-(trifluoromethyl)thieno[3,2-b]pyridin-5-yl)-2-azaspiro[3.3]heptane-2-carboxylate], the IC50 was less than 0.1 µM.

In the case of `CNC(=O)c1csc2c(C(F)(F)F)cc(O[C@@H]3CCN(C(=O)OC(C)(C)C)[C@H](C)C3)nc12` [Example 373, tert-Butyl (2R,4R)-2-methyl-4-((3-(methylcarbamoyl)-7-(trifluoromethyl)thieno[3,2-b]pyridin-5-yl)oxy)piperidine-1-carboxylate], the IC50 was less than 0.1 µM.

These data come from patent US11098056B2, “UDP glycosyltransferase inhibitors and methods of use” (GENZYME CORPORATION, priority 2018, dated 2021).
